# Measured values reported in article PMC6753678, “Fueling Open Innovation for Malaria Transmission-Blocking Drugs: Hundreds of Molecules Targeting Early Parasite Mosquito Stages” (Frontiers in Microbiology, 2019).
# Read-outs that look alike come from different tables or passages of the source.
# Experiments:
# [1] = test system: P. berghei ookinete development; conditions: for % inhibition, Replicate A / % inhibition, Replicate B: primary screen at 1 μM
# [2] = test system: 3D7-strain P. falciparum asexual parasites; experiment: P. falciparum asexual growth inhibition assay (Pf GIA); assay type: cell-based, Plasmodium falciparum; conditions: dose response confirmation; read-out: Pf asexual growth inhibition assays IC50
# Outline: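 Steps: seed parasites (0.25% parasitemia, 2% hematocrit) onto compound dilutions; incubate 72 h at 37°C, 5% O2/5% CO2; freeze at −70°C and thaw; add LDH reaction mix, read A650 after 10 min. Percent growth inhibition derived from chloroquine and DMSO controls, averaged over three biological replicates.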
# HepG2 cells = experiment: HepG2 cytotoxicity assay; conditions: for IC50: read-out: HepG2 cytotoxicity assay IC50, dose response confirmation; for Pb ODA (this manuscript) HepG2 cytoxicity: HepG2 cytotoxicity listed with the Pb ODA data set (this manuscript)
# Outline: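 Cells at 2,500 per well in MEM with 10% fetal bovine serum and 1% NEAA were exposed to test compounds for 48 h at 37°C, 5% CO2. Viability was read by fluorescence, with percent inhibition calculated against 50 μM doxorubicin (positive) and DMSO (negative) controls.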
# [3] = read-out: Pb ODA IC50, this manuscript
# [4] = read-out: Pb Ookinete development assay IC50, dose response confirmation
# [5] = unified HepG2 value across the three screens
# [6] = HepG2 values of the three screens unified
# [7] = read-out: Pb ODA (this manuscript) IC50, P. berghei ookinete development assay, this manuscript
Structure (SMILES),"Is compound selective in assay? Pb ODA active? ([1]; 1: YES, 0: NO)","% inhibition, Replicate A [1]","% inhibition, Replicate B [1]","IC50 [1, 3]","IC50 [1, 4]",IC50 [2],IC50 (HepG2 cells),Unified cytotox (HepG2 cells; [5]),"HepG2 cytoxicity (Pb ODA, this manuscript) (HepG2 cells)",Unified cytotox (HepG2 cells; [6]),Is compound selective in assay? Pb ODA active? [1],"IC50 [1, 7]",Pb ODA (this manuscript) HepG2 cytoxicity (HepG2 cells),IC50 ([1]; read-out: Pb ODA IC50),IC50 ([1]; read-out: Pb Ookinete development assay IC50)
CC(C)CN1CCN(c2nc(C#N)c3c(c2C(=S)NC2CCCCC2)CC(C)(C)OC3)CC1 [TCMDC-124173],1 (1: YES),37.56%,54.94%,4890 nM,4890 nM,415 nM,100000 nM,100.00 µM,,,,,,,
CCN1CCN(CCCNc2c3ccccc3nc3ccccc23)CC1.Cl [TCMDC-137546],0 (0: NO),55.87%,53.70%,3050 nM,3040 nM,616 nM,9120 nM,,9.12 µM,9.12 µM,,,,,
CCC(CC)n1c(C)cc2c3c(N)nc(N)nc3ccc21 [TCMDC-137283],0 (0: NO),93.53%,103.53%,850 nM,846 nM,< 0.2 nM,1.7 nM,,0.0017 µM,0.0017 µM,,,,,
COc1ccc2nc3cc(Cl)ccc3c(NCc3ccccc3)c2c1.Cl [TCMDC-137663],,39.90%,59.60%,,1630 nM,424 nM,41700 nM,,,,1 (key: 1: YES; 0: NO),1630 nM,41.69 µM,,
Nc1c2ccccc2nc2ccc(Cl)cc12 [TCMDC-132029],0 (0: NO),75.70%,81.80%,1460 nM,1460 nM,324 nM,13500 nM,13.49 µM,,,,,,,
CCCCc1ccc(-c2ccc3[nH]c(C)c(Br)c(=O)c3c2)cc1 [TCMDC-135463],0 (0: NO),56.53%,70.28%,2990 nM,3000 nM,77 nM,10000 nM,10.00 µM,,,,,,,
COc1ccc(Oc2ccc(-c3c(C)[nH]c(C)c(Cl)c3=O)cc2)cc1 [TCMDC-136134],1 (1: YES),121.16%,100.57%,420 nM,422 nM,7.4 nM,100000 nM,,,100.00 µM,,,,,
Br.CCC(ON1C(N)=NC(N)=NC1(C)C)c1ccc(Cl)cc1 (stereo not drawn) [TCMDC-131709],,60.03%,57.14%,,3260 nM,1.55 nM,5.13 nM,,,,0 (key: 1: YES; 0: NO),3260 nM,0.00513 µM,,
CCn1c(C(C)C)cc2c3c(N)nc(N)nc3ccc21 [TCMDC-137856],0 (0: NO),104.91%,74.96%,590 nM,588 nM,6.37 nM,3.02 nM,,0.00302 µM,0.00302 µM,,,,,
Cc1cccc2nc(-c3ccc(-c4ccc(CN5CCCC(O)C5)cc4)cc3)[nH]c12.O=C(O)C(F)(F)F (stereo not drawn) [TCMDC-133826],,58.08%,28.26%,,9270 nM,1480 nM,12900 nM,,,,0 (key: 1: YES; 0: NO),,12.88 µM,,
Cc1ccccc1-c1cc(=O)c2cc(NC(=O)c3cccs3)ccc2o1 [TCMDC-124947],1 (1: YES),33.03%,54.68%,4150 nM,4150 nM,408 nM,100000 nM,100.00 µM,,,,,,,
Cc1cc(C)cc(-n2c(C)cc(/C=C3\SC(=Nc4ccc(Cl)cc4)NC3=O)c2C)c1 [TCMDC-124103],1 (1: YES),110.51%,94.72%,560 nM,561 nM,32 nM,100000 nM,100.00 µM,,,,,,,
COc1ccc2c(=O)c(Br)c(C)[nH]c2c1 [TCMDC-137426],,81.77%,82.46%,,483 nM,842 nM,100000 nM,,,,1 (key: 1: YES; 0: NO),480 nM,100.00 µM,,
Cc1c(Cc2ccccc2Br)cnc2nc(N)nc(N)c12.Cl [TCMDC-137244],,44.00%,63.36%,,8490 nM,4 nM,7.76 nM,,,,0 (key: 1: YES; 0: NO),8490 nM,0.00776 µM,,
Cc1nc(C)c(-c2ccc(Oc3cc(Cl)cc(Cl)c3)cc2)c(O)c1Br [TCMDC-137392],1 (1: YES),78.18%,115.81%,450 nM,447 nM,498 nM,20000 nM,,19.95 µM,19.95 µM,,,,,
C#C[C@H]1O[C@@H](n2cnc3c(Nc4cc(Br)cc(C(F)(F)F)c4)ncnc32)[C@H](O)[C@@H]1O [TCMDC-135185],1 (1: YES),92.13%,83.74%,530 nM,533 nM,3380 nM,57500 nM,57.54 µM,,,,,,,
COc1cc(F)c2ncc(Cl)c(CCN3CCC(NCc4ccc5c(c4)NC(=O)CS5)CC3)c2c1.Cl [TCMDC-135620],1 (1: YES),131.37%,63.52%,470 nM,467 nM,15 nM,10600 nM,10.59 µM,,,,,,,
Cc1[nH]c(C)c([N+](=O)[O-])c(=O)c1-c1ccc(Oc2ccccc2)cc1 [TCMDC-135779],,85.12%,87.09%,,540 nM,809 nM,100000 nM,,,,1 (key: 1: YES; 0: NO),,100.00 µM,,
CCC(C)(C)n1c(C)cc2c3c(N)nc(N)nc3ccc21 [TCMDC-137307],,47.56%,73.34%,,,0.9 nM,1.69 nM,,0.00169 µM,0.00169 µM,,,,1190 nM,1190 nM
Cc1[nH]c(C)c(-c2ccc(OCc3ccc(F)cc3)nc2)c(=O)c1Br [TCMDC-135657],1 (1: YES),61.60%,80.51%,600 nM,597 nM,173 nM,100000 nM,,,100.00 µM,,,,,
Cc1[nH]c(C)c(-c2ccc(Oc3cccc(OC(F)(F)F)c3)cc2)c(=O)c1Cl [TCMDC-137389],,25.35%,53.00%,,1130 nM,470 nM,100000 nM,,,,1 (key: 1: YES; 0: NO),1130 nM,100.00 µM,,
CCN(CC)S(=O)(=O)n1ncc2c3c(N)nc(N)nc3ccc21.Cl [TCMDC-137302],,53.62%,57.06%,,2000 nM,79 nM,53.1 nM,,,,0 (key: 1: YES; 0: NO),,0.0531 µM,,
COc1ccc(Cn2ncc3c4c(N)nc(N)nc4ccc32)cc1OC [TCMDC-131934],,44.86%,51.03%,,1530 nM,58 nM,2.14 nM,,,,0 (key: 1: YES; 0: NO),1530 nM,0.00214 µM,,
COc1ccc(CCc2ccc(-c3c(C)[nH]c(C)c(Cl)c3=O)cc2)cc1 [TCMDC-135654],1 (1: YES),86.19%,104.99%,140 nM,143 nM,20 nM,100000 nM,,,100.00 µM,,,,,
Nc1nc(N)c2c(ccc3c2ncn3Cc2ccccc2)n1 [TCMDC-137749],0 (0: NO),48.44%,74.97%,4450 nM,4450 nM,244 nM,1150 nM,1.15 µM,,,,,,,
